# Key:
# [1] = test system: serum growth hormone (GH); test: Phase 1 study Part 1: PD, serum GH concentration; assay type: in vivo, human; settings: for serum GH concentration, peak, mean (SD): 1 h post-dose; for serum GH concentration, mean (SD): pre-dose
# Source text: • Part 1: To evaluate PD (GH response) of the new LUM-201 formulation as capsule (test). • Part 2: To measure PD (GH response) to LUM-201 administered as capsule (test) in fasted versus fed state. PD Results (pt 1): Individual serum growth hormone (GH) concentration time data were obtained for each subject and treatment cohort. […] Following the administration of LUM-201, the serum GH concentration values increased post dose as expected. At pre-dose, mean (SD) serum GH concentration values were 0.2970 (0.7404) ng/mL for Treatment A, 0.2052 (0.3174) ng/mL for Treatment B, 0.5303 (1.354) ng/mL for Treatment C, and 0.1454 (0.1981) ng/mL for Treatment D. The serum GH concentration value peaked at 1 h post-dose for all treatment groups. 17.10 (15.07) ng/mL in Treatment A, 16.55 (16.36) ng/mL in Treatment B, 17.30 (17.05) ng/mL in Treatment C, and 18.01 (14.32) ng/mL in Treatment D. The trend of serum GH concentration changes in all 4 treatment groups was similar, except for the serum GH concentration in Treatment A that approached the peak concentration sooner, relative to the other treatments, at 0.5 h post-dose.
# serum IGF-1 = test: Phase 1 study Part 1: PD, serum IGF-1 concentration; assay type: in vivo, human
# Experimental: The serum IGF-1 concentration values remained stable over the sampling time interval post dose. At pre-dose, mean (SD) serum IGF-1 concentration values were 200.9 (50.41) ng/mL for Treatment A, 192.6 (50.55) ng/mL for Treatment B, 192.5 (47.67) ng/mL for Treatment C, and 195.8 (47.16) ng/mL for Treatment D. At 24 h post-dose, the serum concentration values rose to 224.7 (48.70) ng/mL in Treatment A, 224.2 (50.24) ng/mL in Treatment B, 230.4 (60.81) ng/mL in Treatment C, and 223.7 (56.75) ng/mL in Treatment D.
# [2] = Part 1, Treatment A: five 18 mg tablets (90 mg), fasted
# [3] = Part 1, Treatment B: 85.3 mg whole capsule, fasted
# [4] = Part 1, Treatment C: 85.3 mg capsule contents (dry), fasted
# [5] = Part 1, Treatment D: 85.3 mg capsule contents in banana puree
smiles,measurement,setting,value
"CC(C)(N)C(=O)N[C@H](COCc1ccccc1)C(=O)N1CCC2(CC1)CN(S(C)(=O)=O)c1ccccc12 [LUM-201, N-[1(R)-[(1,2-dihydro-1-methanesulfonylspiro[3H-indole-3,4′-piperdin]-yl)carbonyl]-2-(phenylmethyloxy)ethyl]-2-amino-2-methylpropanamide methanesulfonate]","serum GH concentration, peak, mean (SD)",[1]; [2],17.10 (15.07) ng/mL
same,"serum GH concentration, peak, mean (SD)",[1]; [3],16.55 (16.36) ng/mL
same,"serum GH concentration, peak, mean (SD)",[1]; [4],17.30 (17.05) ng/mL
same,"serum GH concentration, peak, mean (SD)",[1]; [5],18.01 (14.32) ng/mL
same,"PD parameters, capsule versus tablets","[1]; Part 1, serum GH and serum IGF-1, 4 treatment groups",no observed differences
same,"serum GH concentration, mean (SD)",[1]; [2],0.2970 (0.7404) ng/mL
same,"serum GH concentration, mean (SD)",[1]; [3],0.2052 (0.3174) ng/mL
same,"serum GH concentration, mean (SD)",[1]; [4],0.5303 (1.354) ng/mL
same,"serum GH concentration, mean (SD)",[1]; [5],0.1454 (0.1981) ng/mL
same,"serum IGF-1 concentration, mean (SD)","serum IGF-1; 24 h post-dose, Part 1, Treatment A: five 18 mg tablets (90 mg), fasted",224.7 (48.70) ng/mL
same,"serum IGF-1 concentration, mean (SD)","serum IGF-1; 24 h post-dose, Part 1, Treatment B: 85.3 mg whole capsule, fasted",224.2 (50.24) ng/mL
same,"serum IGF-1 concentration, mean (SD)","serum IGF-1; 24 h post-dose, Part 1, Treatment C: 85.3 mg capsule contents (dry), fasted",230.4 (60.81) ng/mL
same,"serum IGF-1 concentration, mean (SD)","serum IGF-1; 24 h post-dose, Part 1, Treatment D: 85.3 mg capsule contents in banana puree",223.7 (56.75) ng/mL
same,"serum IGF-1 concentration, mean (SD)","serum IGF-1; pre-dose, Part 1, Treatment A: five 18 mg tablets (90 mg), fasted",200.9 (50.41) ng/mL
same,"serum IGF-1 concentration, mean (SD)","serum IGF-1; pre-dose, Part 1, Treatment B: 85.3 mg whole capsule, fasted",192.6 (50.55) ng/mL
same,"serum IGF-1 concentration, mean (SD)","serum IGF-1; pre-dose, Part 1, Treatment C: 85.3 mg capsule contents (dry), fasted",192.5 (47.67) ng/mL
same,"serum IGF-1 concentration, mean (SD)","serum IGF-1; pre-dose, Part 1, Treatment D: 85.3 mg capsule contents in banana puree",195.8 (47.16) ng/mL
